Source: patent US10471025B2, “Compositions for use in treating parkinson's disease and related disorders” (Technophage, Investigação E Desenvolvimento Em …, priority 2015, dated 2019)
Read-outs that look alike come from different tables or passages of the source.

Tests used:
6-OHDA mouse model [1] = assay: Abnormal involuntary movements, 6-OHDA mice (Example 5); type: in vivo; conditions: mouse, in vivo
Method: This condition results in a range of involuntary movements that can be evaluated by video tracking analyses. […] Evaluations were performed during two independent trials, 30 and 90 minutes after treatment administration. […] Nonetheless, forelimb and orofacial involuntary movements are extremely hard to detect, and reading errors occur, considering the size of the animals. Total abnormal involuntary movements are the sum of all 4 different involuntary movements evaluated and is the parameter often reported in the literature.
As FIGS. 17A-17F show, abnormal involuntary movements were evaluated using the cylinder test 28 days post injection. […] Values mean ě SEM (n=5-8).

6-OHDA mouse model [2] = assay: Cylinder test, 6-OHDA mice (Example 5); type: in vivo; conditions: vs 6-OHDA group; daily i.p.
[3] = test system: 6-OHDA treated zebrafish larvae; assay: LD50 / lethality in the disease context of the zebrafish model; conditions: 6-OHDA disease-induced zebrafish larvae
[4] = in water; cited from earlier work
6-OHDA mouse model [5] = assay: Open field test, 6-OHDA mice (Example 5); type: in vivo; conditions: 9 days post lesion, vs 6-OHDA group
Method: Open field testing evaluates mainly spontaneous activity. […] Four different parameters were recorded: maximum velocity (FIGS. 18A, 19A, and 20A), total distance moved (FIGS. 18B, 19B, and 20B), mean velocity (FIGS. 18C, 19C, and 20C), and latency to first reach the walls (FIGS. 18D, 19D, and 20D). All parameters were determined by the analysis of a 5 minute video, recorded 30 minutes after therapeutic administration. Values mean ě SEM (n=3-8).
For total distance moved (FIGS. 18B, 19B, and 20B) and mean velocity (FIGS. 18C, 19C, and 20C), an hour video also was analyzed for an animal per group, to evaluate the effect of the drug with time. For these analyses, a 5 minute video prior to therapeutic administration also was taken. […] Ethovision V10 system was used for making the videos for analysis.

[6] = test system: 6-OHDA treated zebrafish larvae; assay: Freezing (duration of freezing periods, light/dark stimulus) in 6-OHDA zebrafish larvae; type: in vivo; conditions: tapentadol 48.5, stavudine 50, nabumetone 0.91 μM; L-Dopa treatment
Method: In the zebrafish model, the locomotor impairment was measured and related with bradykinesia in patients. Tests included evaluating ‘freezing_ in response to a light/dark stimulus. 6-OHDA induced larvae had fewer freezing episodes but spent longer periods in the frozen state. In previous studies, the duration of freezing episodes has been analyzed in PD patients. […] Nonetheless, it is an inhibitor of the neuronal dopamine transporter and since 6-OHDA needs DAT to enter the neuron and induce the disease, methylphenidate may be a false positive.
As FIGS. 9B-9C show, freezing recovery was tested using 7 candidate molecules at optimal concentrations, in an exemplary experiment with n=8 fish, and methylphenidate and amantadine at 25 ? M.

rat = conditions: rat, cited from earlier work
[7] = test system: 6-OHDA treated zebrafish larvae; assay: Rescue of Tyrosine hydroxylase (TH)-positive dopaminergic neurons in 6-OHDA zebrafish larvae; type: in vivo; conditions: for Neurorescue: TH+ neurons at optimal dose, p; for Neuroprotective effect / recovery of TH+ neurons: at the optimal concentration of each molecule
Method: The 7 candidates also were tested in terms of rescue of dopaminergic neurons positive for Tyrosine hydroxylase (Th) in the substancia nigra pars compacta of the test animals. […] Results were normalized for healthy control values (healthy control=100% of neurons). As a control, zebrafish were treated with only the vehicle, ascorbic acid. ‘6-OHDA_ represents results in zebrafish receiving no treatment.
FIGS. 6E-6G show representative Z-projections of confocal stacks of whole-mount anti-TH immunohistochemistry in 6 days post-fertilization (dpf) of zebrafish larvae (age of the fish) control (FIG. 6E), 6-OHDA (FIG. 6F), and tapentadol treated-larvae (FIG. 6G).

[8] = test system: 6-OHDA treated zebrafish larvae; assay: Locomotor behavior rescue (total distance moved, number of jumps) in 6-OHDA zebrafish PD model; type: in vivo; conditions: for Effective concentration / peak, small range plot: phenotype recovery, total distance moved
Excerpt: To model Parkinson ̆s disease (PD), a neurotoxin 6-OHDA (6-hyroxydopamine) based method was used in zebrafish and in mice. In this model, 6-OHDA-lesions induce motor manifestations in zebrafish and in mice, such as reduced locomotor ability, and the loss of dopaminergic neurons. Based on the 6-OHDA PD zebrafish model, compounds from a small molecules library were screened for rescue of the parkinsonian phenotype (Example 1, see below).
The screen was based on both the recovery of impaired locomotor behavior and dopaminergic neuronal loss.
Values were normalized for the mean of disease state in each experiment (disease=1). Each plot contains data from 3 independent experiments with a total of 24 larvae. As a control, zebrafish were treated with only the vehicle, ascorbic acid.
For these experiments, Tubingen (TU) wild-type zebrafish, a specific strain of wild-type zebrafish, were used.

[9] = in vivo, cited from earlier work
[10] = test system: 6-OHDA treated zebrafish larvae; assay: Co-administration with L-Dopa, total distance 6-OHDA larvae move; type: in vivo; conditions: total distance; L-Dopa 250 or 125 μM
[11] = sc; cited from earlier work

N[C@@H](Cc1ccc(O)c(O)c1)C(=O)O [L-Dopa, Levodopa]
Induction of abnormal involuntary movements (6-OHDA mouse model [1]): induced these involuntary movements
Cylinder test: number of rearings (6-OHDA mouse model [2]): no difference
Cylinder test: percentage of animals with tremor (6-OHDA mouse model [2]): motor recovery was observed
Cylinder test: percentage of contralateral paw use (6-OHDA mouse model [2]): motor recovery was observed
LD50 [3]: >5 mM
Solubility [4]: 3.3 mg/ml in
Open field: latency to first reach the walls (6-OHDA mouse model [5]): did not show motor improvement
Duration of freezing periods, recovery vs 6-OHDA treated larvae [6]: no recovery
LD50 (rat; in vivo, po): 1780 mg/kg
Neurorescue [7]: no
Neuroprotective effect / recovery of TH+ neurons [7]: does not induce the recovery of TH+ neurons
Neuroprotection of TH+ neurons ([7]; where the disease is less severe (sig *), preliminary): can be neuroprotective
Optimal concentration ([8]; behavioral experiments and TH+ cell counts): 250 µM
Effective concentration / peak, small range plot [8]: 100 µM

C#CCN[C@@H]1CCc2ccccc21 [Rasagiline]
Oral bioavailability ([9]; po): 35%
Half-life [9]: 1.5 to 3.5 h
Effect of co-administration with L-Dopa on locomotor recovery [10]: increased effect
LD50 [3]: 187.5 | M
Solubility [4]: 53 mg/ml in
LD50 (rat): 300 mg/kg
Neurorescue [7]: confirmed P < 0.11
Neuroprotective effect / recovery of TH+ neurons [7]: confirmed
Effective concentration / peak, small range plot [8]: 25 µM
Effective rat dose [11]: 0.8 mg/kg/day
